The assay has as its target T1, human DGAT1 (Homo sapiens, UniProt O75907).
T1 construct: made in house; host or cells: Sf9 insect cells (baculovirus), membrane fraction
T1 sequence (O75907 1-488): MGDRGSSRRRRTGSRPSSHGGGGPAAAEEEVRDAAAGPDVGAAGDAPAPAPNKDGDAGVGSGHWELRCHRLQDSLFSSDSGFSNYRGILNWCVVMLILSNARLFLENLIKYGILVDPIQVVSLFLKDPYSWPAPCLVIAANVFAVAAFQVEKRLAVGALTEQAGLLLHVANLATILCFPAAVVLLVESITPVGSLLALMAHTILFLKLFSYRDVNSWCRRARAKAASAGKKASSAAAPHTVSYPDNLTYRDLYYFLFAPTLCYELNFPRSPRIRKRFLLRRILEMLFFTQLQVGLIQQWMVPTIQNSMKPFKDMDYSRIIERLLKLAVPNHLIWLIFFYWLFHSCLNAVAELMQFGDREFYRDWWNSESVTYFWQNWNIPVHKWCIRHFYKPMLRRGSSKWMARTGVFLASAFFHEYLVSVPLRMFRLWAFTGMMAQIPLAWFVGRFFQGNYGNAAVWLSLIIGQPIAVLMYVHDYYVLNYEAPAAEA
Briefly: Human Enzyme Assay (DGAT1 inhibition, 14C oleoyl CoA incorporation into triolein). The class given is biochemical. Particulars: human DGAT1 expressed in sf9 insect cell membranes; Examples 25 to 59; rounded to 2 decimal places. How it is done:
Briefly, sf9 cells were infected with recombinant baculovirus containing human DGAT1 coding sequences and harvested after 48 h. Cells were lysed by sonication and membranes isolated by centrifuging at 28000 rpm for 1 h at 4° C. on a 41% sucrose gradient. The membrane fraction at the interphase was collected, washed, and stored in liquid nitrogen.
The reaction was started by adding ^14C oleoyl coenzyme A (30 μM final concentration) and incubated at room temperature for 30 minutes. The reaction was stopped by adding 200 μl 2-propanol:heptane 7:1. Radioactive triolein product was separated into the organic phase by adding 300 μl heptane and 100 μl 0.1 M carbonate buffer pH 9.5. DGAT1 activity was quantified by counting aliquots of the upper heptane layer by liquid scintillography.

With `C[C@@H]1CN(c2ccc(-c3ccccc3Cl)c(C#N)c2)C(=O)c2c(N)ncnc2O1` [Example 59, (R)-4-(4-Amino-8-methyl-5-oxo-7,8-dihydropyrimido[5,4-f][1,4]oxazepin-6(5H)-yl)-2′-chlorobiphenyl-2-carbonitrile], the IC50 came to 20 nM.

What is called IC50 is the concentration that gives 50% inhibition. Higher therefore signals weaker potency.

These data come from patent publication US20110251173A1, “CHEMICAL COMPOUNDS” (AstraZeneca AB, priority 2010, published 2011).
